Assay: log P determination by HPLC (reversed-phase C18, EEC Directive 79/831 Annex V.A8)
Format: physicochemical
Details: reversed-phase C18 HPLC column, pH 2.3, pH 2.3, 0.1% aqueous phosphoric acid/acetonitrile gradient, 43° C
Excerpt: Mobile phases for determination in the acidic range: 0.1% aqueous phosphoric acid, acetonitrile; linear gradient from 10% acetonitrile to 90% acetonitrile.

Row | SMILES | chromatographic logP
1 | Fc1cccc(F)c1C1=NC(c2ccc(-c3cnc(N4CCN(CCc5ccccc5)CC4)nc3)cc2)CC1 (centres unmarked) [Example 168] | 1.84
2 | COC(=O)C1CCN(c2ccc(-c3ccc(C4CCC(c5c(F)cccc5F)=N4)cc3)cn2)CC1 (centres unmarked) [Example 170] | 1.61
3 | Fc1ccccc1N1CCN(c2ccc(-c3ccc(C4CCC(c5c(F)cccc5F)=N4)cc3)cn2)CC1 (centres unmarked) [Example 171] | 2.51
4 | Fc1cccc(F)c1C1=NC(c2ccc(-c3ccc(N4CCN(Cc5ccc(Cl)cc5)CC4)nc3)cc2)CC1 (centres unmarked) [Example 173] | 1.83
5 | COc1ccc(CN2CCN(c3ccc(-c4ccc(C5CCC(c6c(F)cccc6F)=N5)cc4)cn3)CC2)cc1 (centres unmarked) [Example 174] | 1.59
6 | CC(C)(C)C1CCN(c2ccc(-c3ccc(C4CCC(c5c(F)cccc5F)=N4)cc3)cn2)CC1 (centres unmarked) [Example 175] | 2.89
7 | Cc1cnc(-c2ccc(C3CCC(c4c(F)cccc4F)=N3)cc2)nc1 (centres unmarked) [Example 177] | 2.02
8 | COCCN(CCC#N)c1ncc(-c2ccc(C3CCC(c4c(F)cccc4F)=N3)cc2)cn1 (centres unmarked) [Example 178] | 2.45
9 | Fc1cccc(F)c1C1=NC(c2ccc(-c3ncc(Br)cn3)cc2)CC1 (centres unmarked) [Example 180] | 3.08
10 | CCc1cnc(-c2ccc(C3CCC(c4c(F)cccc4F)=N3)cc2)nc1 (centres unmarked) [Example 181] | 2.46
11 | CN(Cc1ccco1)c1ncc(-c2ccc(C3CCC(c4c(F)cccc4F)=N3)cc2)cn1 (centres unmarked) [Example 182] | 3.1
12 | Fc1cccc(F)c1C1=NC(c2ccc(-c3cnc(N4CCC5(CC4)OCCO5)nc3)cc2)CC1 (centres unmarked) [Example 187] | 2.51
13 | Fc1cccc(F)c1C1=NC(c2ccc(-c3ncc(-c4ccc(Cl)cc4)cn3)cc2)CC1 (centres unmarked) [Example 188] | 4.12
14 | Fc1cccc(F)c1C1=NC(c2ccc(-c3ccc(N4CCN(Cc5ccccc5)CC4)nc3)cc2)CC1 (centres unmarked) [Example 189] | 1.5
15 | CCOCCN1CCN(c2ccc(-c3ccc(C4CCC(c5c(F)cccc5F)=N4)cc3)cn2)CC1 (centres unmarked) [Example 193] | 1.26
16 | Fc1cccc(F)c1C1=NC(c2ccc(-c3cnc(OC4CCC4)nc3)cc2)CC1 (centres unmarked) [Example 197] | 2.88
17 | Fc1cccc(F)c1C1=NC(c2ccc(-c3cnc(OC4CCCCC4)nc3)cc2)CC1 (centres unmarked) [Example 198] | 3.67

Continued, values first:

Row | chromatographic logP | SMILES
18 | 2.96 | CCCc1cnc(-c2ccc(C3CCC(c4c(F)cccc4F)=N3)cc2)nc1 (centres unmarked) [Example 169]
19 | 1.64 | Fc1ccc(CN2CCN(c3ccc(-c4ccc(C5CCC(c6c(F)cccc6F)=N5)cc4)cn3)CC2)cc1 (centres unmarked) [Example 172]
20 | 2.23 | CC(C)(C)c1ccc(CN2CCN(c3ccc(-c4ccc(C5CCC(c6c(F)cccc6F)=N5)cc4)cn3)CC2)cc1 (centres unmarked) [Example 176]
21 | 2.69 | Fc1cccc(F)c1C1=NC(c2ccc(-c3ccc(Br)nc3)cc2)CC1 (centres unmarked) [Example 179]
22 | 3.59 | CCN(Cc1ccco1)c1ncc(-c2ccc(C3CCC(c4c(F)cccc4F)=N3)cc2)cn1 (centres unmarked) [Example 183]
23 | 2.31 | Fc1cccc(F)c1C1=NC(c2ccc(-c3cnc(NCc4ccco4)nc3)cc2)CC1 (centres unmarked) [Example 184]
24 | 4.54 | CCC(C)N(Cc1ccco1)c1ncc(-c2ccc(C3CCC(c4c(F)cccc4F)=N3)cc2)cn1 (centres unmarked) [Example 185]
25 | 3.4 | Cc1ccc(CN(C)c2ncc(-c3ccc(C4CCC(c5c(F)cccc5F)=N4)cc3)cn2)o1 (centres unmarked) [Example 186]
26 | 3.09 | N#Cc1cccnc1N1CCN(c2ccc(-c3ccc(C4CCC(c5c(F)cccc5F)=N4)cc3)cn2)CC1 (centres unmarked) [Example 190]
27 | 2.58 | Cc1ccc(N2CCN(c3ccc(-c4ccc(C5CCC(c6c(F)cccc6F)=N5)cc4)cn3)CC2)cc1C (centres unmarked) [Example 191]
28 | 1.14 | CC(C)N1CCN(c2ccc(-c3ccc(C4CCC(c5c(F)cccc5F)=N4)cc3)cn2)CC1 (centres unmarked) [Example 192]
29 | 1.16 | COCCCN1CCN(c2ccc(-c3ccc(C4CCC(c5c(F)cccc5F)=N4)cc3)cn2)CC1 (centres unmarked) [Example 195]

Reference: patent US7179806B2, “Δ1-pyrrolines used as pesticides” (Bayer Cropscience AG, priority 2000, dated 2007)
